Experimental data: ChEMBL document CHEMBL1201862, “PubChem BioAssay data set” (2004)
Active and inactive are the calls of the source.

Tests used:
[1] = molecular target: T1, Corticotropin-releasing factor receptor 2/Corticotropin-releasing factor-binding protein (Homo sapiens, UniProt P24387+Q13324); assay: activators of CRF receptor 2 with binding protein – uHTS hits, confirmation (AID 602473); format: functional; conditions: read-out: EC50_Mean
T1 sequence (Q13324 whole entry): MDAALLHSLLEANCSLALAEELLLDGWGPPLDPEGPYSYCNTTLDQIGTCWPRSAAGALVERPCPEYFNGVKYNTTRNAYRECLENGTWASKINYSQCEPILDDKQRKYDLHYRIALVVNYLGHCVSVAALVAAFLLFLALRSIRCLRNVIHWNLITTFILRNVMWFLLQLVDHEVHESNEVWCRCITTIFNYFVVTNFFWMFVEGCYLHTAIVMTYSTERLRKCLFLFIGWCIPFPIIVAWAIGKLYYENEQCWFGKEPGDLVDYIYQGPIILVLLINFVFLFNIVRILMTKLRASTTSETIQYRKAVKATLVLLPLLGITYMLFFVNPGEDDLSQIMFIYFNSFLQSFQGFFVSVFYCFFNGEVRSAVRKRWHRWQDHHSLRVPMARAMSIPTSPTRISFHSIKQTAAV
T1 sequence (P24387 whole entry): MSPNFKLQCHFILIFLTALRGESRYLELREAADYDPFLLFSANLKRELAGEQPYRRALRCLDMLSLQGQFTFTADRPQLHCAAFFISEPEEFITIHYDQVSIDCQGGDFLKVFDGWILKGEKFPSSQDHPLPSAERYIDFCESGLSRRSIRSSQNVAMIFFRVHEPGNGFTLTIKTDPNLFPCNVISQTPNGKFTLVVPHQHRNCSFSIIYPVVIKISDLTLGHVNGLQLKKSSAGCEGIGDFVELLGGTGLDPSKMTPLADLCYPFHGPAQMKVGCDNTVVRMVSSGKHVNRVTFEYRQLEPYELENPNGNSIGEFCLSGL

[2] = molecular target: NACHT, LRR and PYD domains-containing protein 3 (Homo sapiens, UniProt Q96P20); assay: NALP3 inhibitors in yeast, dose response, luminescent (AID 488799); format: functional
[3] = molecular target: ATP-dependent molecular chaperone HSP82 (Candida albicans (strain WO-1) (Yeast), UniProt C4YTQ8); assay: steroid-induced GRE reporter decrease in yeast – S. cerevisiae, luminescence, Hsp90 inhibitor project, dose response (AID 2400); format: functional, cell-based;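 further: beta-galactosidase luminescence from glucocorticoid response element reporter as proxy for Hsp90 function; inhibitor potency where signal loss means Hsp90 inhibition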
[4] = fluconazole-exposed Candida albicans growth modulators – fluorescence, retest, confirmation (AID 2467); format: functional, cell-based
[5] = NIH-3T3 fibroblast cytotoxicity, dose response, cytotoxicity control, cell-based, fluorescence, Alamar Blue, secondary assay (AID 2327); format: functional;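 further: NIH-3T3 mouse fibroblasts cultured with fluconazole at 8 µg/mL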
[6] = molecular target: Serine/threonine-protein phosphatase (Candida dubliniensis (strain CD36 / CBS 7987 / NCPF 3949 / NRRLY-17841) (Yeast), UniProt B9W6M3); assay: blockers of CaCl2-induced CDRE-lacZ signaling – S. cerevisiae, luminescence, secondary, dose response (AID 2388); format: functional, cell-based;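 further: yeast reporter cells carrying a calcineurin-responsive lacZ construct stimulated with calcium chloride; luminescent beta-galactosidase reporter signal in whole cells rather than isolated phosphatase activity; potency for inhibition where a drop in reporter signal means calcineurin blockade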
Insulin-degrading enzyme [7] = molecular target: T2, Insulin-degrading enzyme (Homo sapiens, UniProt P14735); assay: recombinant IDE activation, cell-free – biochemical, fluorescence polarization, counter-screen for IDE activator project, dose response (AID 588681)
T2 sequence (P14735 whole entry): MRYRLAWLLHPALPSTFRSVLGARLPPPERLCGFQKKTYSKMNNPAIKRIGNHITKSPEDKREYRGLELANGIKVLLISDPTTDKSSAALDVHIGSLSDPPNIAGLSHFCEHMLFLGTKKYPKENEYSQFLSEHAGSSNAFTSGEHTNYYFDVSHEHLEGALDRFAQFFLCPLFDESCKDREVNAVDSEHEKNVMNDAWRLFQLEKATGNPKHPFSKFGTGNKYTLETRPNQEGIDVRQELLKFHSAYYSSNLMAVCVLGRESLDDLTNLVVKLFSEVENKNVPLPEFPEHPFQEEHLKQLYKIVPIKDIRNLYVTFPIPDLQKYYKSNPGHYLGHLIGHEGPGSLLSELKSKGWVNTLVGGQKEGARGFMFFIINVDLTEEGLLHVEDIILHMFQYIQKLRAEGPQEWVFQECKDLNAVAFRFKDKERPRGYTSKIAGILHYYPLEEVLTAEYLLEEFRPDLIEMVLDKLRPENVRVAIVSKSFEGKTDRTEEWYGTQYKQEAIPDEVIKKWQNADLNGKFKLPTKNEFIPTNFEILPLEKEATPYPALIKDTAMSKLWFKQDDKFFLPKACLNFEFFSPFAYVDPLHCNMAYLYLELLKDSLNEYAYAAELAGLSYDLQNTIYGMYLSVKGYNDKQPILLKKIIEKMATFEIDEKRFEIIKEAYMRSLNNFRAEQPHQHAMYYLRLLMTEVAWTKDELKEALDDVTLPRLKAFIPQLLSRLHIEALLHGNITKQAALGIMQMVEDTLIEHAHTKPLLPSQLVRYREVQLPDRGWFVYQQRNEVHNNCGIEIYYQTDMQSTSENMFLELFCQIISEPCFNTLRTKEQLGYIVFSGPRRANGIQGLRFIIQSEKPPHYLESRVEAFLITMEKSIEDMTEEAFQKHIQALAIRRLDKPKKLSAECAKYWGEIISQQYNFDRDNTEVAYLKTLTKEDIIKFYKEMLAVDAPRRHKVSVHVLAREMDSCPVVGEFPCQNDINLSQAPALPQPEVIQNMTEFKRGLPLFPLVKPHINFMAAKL

Insulin-degrading enzyme [8] = molecular target: T2, Insulin-degrading enzyme; assay: cellular IDE activation of Abeta substrate cleavage – fluorescence polarization, HEK cells, dose response (AID 588439); format: functional, cell-based
HEK293 [9] = assay: optical interference in Abeta FP readout, dose response, artefact control for IDE activator project, biochemical, fluorescence polarization (AID 588442); format: functional, cell-based; conditions: Homo sapiens
HEK293 [10] = assay: membrane integrity loss in HEK cells – cell-based, fluorescence, cytotoxicity control for IDE activator project, dose response (AID 588440); format: functional; conditions: Homo sapiens;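 further: cytotoxicity by LDH release measuring loss of membrane integrity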

NACHT, LRR and PYD domains-containing protein 3, sequence (Q96P20 whole entry, the tested form may be a part): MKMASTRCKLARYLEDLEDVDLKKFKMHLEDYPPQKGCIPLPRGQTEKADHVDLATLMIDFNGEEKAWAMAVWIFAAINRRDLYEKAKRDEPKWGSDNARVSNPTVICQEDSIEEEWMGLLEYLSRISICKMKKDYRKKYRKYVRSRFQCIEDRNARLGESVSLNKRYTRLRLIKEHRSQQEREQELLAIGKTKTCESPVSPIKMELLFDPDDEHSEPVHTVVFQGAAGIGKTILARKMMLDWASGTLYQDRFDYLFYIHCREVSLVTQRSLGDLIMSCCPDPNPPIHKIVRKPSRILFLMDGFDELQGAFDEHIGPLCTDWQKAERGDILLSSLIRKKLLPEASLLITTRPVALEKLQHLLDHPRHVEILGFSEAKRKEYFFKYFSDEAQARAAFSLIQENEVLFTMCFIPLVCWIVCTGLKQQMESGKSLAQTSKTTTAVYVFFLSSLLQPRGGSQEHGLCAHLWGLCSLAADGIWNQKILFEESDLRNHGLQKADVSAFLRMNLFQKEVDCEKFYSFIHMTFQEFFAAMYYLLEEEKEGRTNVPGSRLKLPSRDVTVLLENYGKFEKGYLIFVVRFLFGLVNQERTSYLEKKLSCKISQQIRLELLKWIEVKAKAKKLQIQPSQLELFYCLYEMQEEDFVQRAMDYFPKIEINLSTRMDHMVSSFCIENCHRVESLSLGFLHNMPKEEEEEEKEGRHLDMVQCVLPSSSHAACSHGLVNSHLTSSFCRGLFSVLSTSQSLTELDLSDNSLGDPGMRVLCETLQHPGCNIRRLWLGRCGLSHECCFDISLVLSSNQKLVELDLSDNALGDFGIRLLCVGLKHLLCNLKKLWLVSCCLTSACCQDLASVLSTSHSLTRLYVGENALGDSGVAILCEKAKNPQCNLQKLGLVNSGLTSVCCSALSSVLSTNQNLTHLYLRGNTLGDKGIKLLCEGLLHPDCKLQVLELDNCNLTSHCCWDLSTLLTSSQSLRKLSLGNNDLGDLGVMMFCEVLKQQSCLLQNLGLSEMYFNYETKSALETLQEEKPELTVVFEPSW
Serine/threonine-protein phosphatase, sequence (B9W6M3 whole entry): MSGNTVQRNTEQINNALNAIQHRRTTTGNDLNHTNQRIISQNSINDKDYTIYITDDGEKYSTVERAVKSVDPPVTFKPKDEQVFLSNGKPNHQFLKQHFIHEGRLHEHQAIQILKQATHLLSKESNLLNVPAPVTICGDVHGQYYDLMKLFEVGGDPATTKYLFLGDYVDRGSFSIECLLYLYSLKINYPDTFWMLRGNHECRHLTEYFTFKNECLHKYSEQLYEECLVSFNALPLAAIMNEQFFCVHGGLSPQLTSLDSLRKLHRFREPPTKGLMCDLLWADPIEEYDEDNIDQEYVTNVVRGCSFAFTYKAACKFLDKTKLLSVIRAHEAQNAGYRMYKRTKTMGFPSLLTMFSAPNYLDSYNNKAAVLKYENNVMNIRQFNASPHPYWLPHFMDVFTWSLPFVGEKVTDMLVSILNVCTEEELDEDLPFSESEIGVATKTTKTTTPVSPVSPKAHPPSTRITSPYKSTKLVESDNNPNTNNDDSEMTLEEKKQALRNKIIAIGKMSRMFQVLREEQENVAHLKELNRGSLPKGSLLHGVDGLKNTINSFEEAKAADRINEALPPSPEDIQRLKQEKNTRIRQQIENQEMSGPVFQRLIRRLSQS
ATP-dependent molecular chaperone HSP82, sequence (C4YTQ8 whole entry): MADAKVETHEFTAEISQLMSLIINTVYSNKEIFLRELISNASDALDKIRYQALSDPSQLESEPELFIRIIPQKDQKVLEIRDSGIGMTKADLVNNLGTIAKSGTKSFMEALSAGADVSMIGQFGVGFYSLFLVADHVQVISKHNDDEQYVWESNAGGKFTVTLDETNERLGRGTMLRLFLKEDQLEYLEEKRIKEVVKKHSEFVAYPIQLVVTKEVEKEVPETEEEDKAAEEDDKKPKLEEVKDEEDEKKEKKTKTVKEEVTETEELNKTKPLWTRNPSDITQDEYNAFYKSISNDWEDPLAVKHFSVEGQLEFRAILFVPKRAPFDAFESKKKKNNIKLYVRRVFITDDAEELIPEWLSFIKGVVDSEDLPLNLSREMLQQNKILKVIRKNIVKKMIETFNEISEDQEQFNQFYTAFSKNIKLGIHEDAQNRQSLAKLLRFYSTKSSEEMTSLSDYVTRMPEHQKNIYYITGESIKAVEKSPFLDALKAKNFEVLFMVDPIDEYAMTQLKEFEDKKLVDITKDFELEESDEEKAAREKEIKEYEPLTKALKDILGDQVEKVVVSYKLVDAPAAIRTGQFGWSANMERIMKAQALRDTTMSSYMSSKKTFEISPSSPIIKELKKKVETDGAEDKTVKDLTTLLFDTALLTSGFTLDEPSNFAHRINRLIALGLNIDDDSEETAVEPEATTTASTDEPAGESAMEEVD

SMILES | EC50 [1] | IC50 [2] | EC50 [3] | EC50 [4] | EC50 [5] | EC50 [6] | EC50 (Insulin-degrading enzyme [7]) | EC50 (Insulin-degrading enzyme [8]) | EC50 (HEK293 [9]) | IC50 (HEK293 [10])
O=C(NNC(=S)NC(=O)c1ccc(Br)cc1)c1ccc([N+](=O)[O-])cc1 | 5.32 µM (active) | 5.63 µM (active) | > 160 µM (inactive) | 0.198 µM (active) | > 160 µM (inconclusive) | > 180 µM (inactive) |  |  |  | 
COc1ccc(/C=C2\Oc3cc(OCC(=O)N4CCC(C(=O)O)CC4)ccc3C2=O)c(OC)c1 |  |  |  |  |  |  | > 54.7 µM (inactive) | > 54.7 µM (inactive) | > 56 µM (inactive) | > 89.3 µM (inactive)
Cc1nc(Cc2nnc(SC(C)C(=O)N3c4ccccc4NC(=O)C3(C)C)o2)cs1 (centres undefined) |  |  |  |  |  |  | > 54.7 µM (inactive) | > 54.7 µM (inactive) | > 55.9 µM (inactive) | > 89.1 µM (inactive)
